In patent US4393225A, “AI-77 Compounds and pharmaceutically acceptable salts thereof” (Asahi Kasei Kogyo Kabushiki Kaisha, priority 1979, dated 1983):

System: ulcer
Experiment: Anti-ulcer test (restraint and water immersion ulcer in rats, i.p.)
Format: in vivo, Male Wistar rats
Details: Rattus norvegicus, ip; 50 mg/kg i.p.; read-out: % Inhibition of Ulcer
Experimental: The anti-ulcer and anti-edema activity of the compounds was evaluated in efficacy tests described below.
Male Wistar rats weighing about 150 g on average were not fed for 24 hours before the test. Then a solution or suspension of a predetermined concentration of the test compound in physiological saline was administered to them intraperitoneally. One hour after the administration,each rat was restrained in a net cage and submerged in a water both (21° C.) from the tail to xiphistrenun for 6 hours. Test animals were then killed (by dislocation of the cervical vertebrae), the stomach was removed and incised along the curvatura ventriculi major, and the inside wall of the stomach was pathologically examined under microscopic observation. Rats in which the occurrence of an ulceration was substantially not observed were rated O, while others were rated 0.5, 1, 2 or 3, depending on the severity of the ulcer development. The percent inhibition of ulcer was calculated by the following formula: [formula]

Row | Structure (SMILES) | inhibition in vivo at 50 mg/kg
1 | CC(=O)OC(C(=O)NC(CC(C)C)C1Cc2cccc(O)c2C(=O)O1)C1OC(=O)CC1NC(=O)CC(C)C (stereo not drawn) [IIIa-2-3] | 44%
2 | CCCCCCCCCCCCCCCCCC(=O)NC1CC(=O)OC1C(OC(C)=O)C(=O)NC(CC(C)C)C1Cc2cccc(O)c2C(=O)O1 (stereo not drawn) [IIIa-2-4] | 33%
3 | CCCCCCCCC=CCCCCCCCC(=O)NC1CC(=O)OC1C(OC(C)=O)C(=O)NC(CC(C)C)C1Cc2cccc(O)c2C(=O)O1 (stereo not drawn) [IIIa-2-5] | 33%
4 | CC(=O)OC(C(=O)NC(CC(C)C)C1Cc2cccc(O)c2C(=O)O1)C1OC(=O)CC1NC(=O)C1CCCO1 (stereo not drawn) [IIIa-2-6] | 44%
5 | CC(=O)OC(C(=O)NC(CC(C)C)C1Cc2cccc(O)c2C(=O)O1)C1OC(=O)CC1NC(=O)c1ccc(C)cc1 (stereo not drawn) [IIIa-2-8] | 44%
6 | CC(=O)OC(C(=O)NC(CC(C)C)C1Cc2cccc(O)c2C(=O)O1)C1OC(=O)CC1NC(=O)c1ccc(OCCC(C)C)cc1 (stereo not drawn) [IIIa-2-9] | 33%
7 | CCC(=O)OC(C(=O)NC(CC(C)C)C1Cc2cccc(O)c2C(=O)O1)C1OC(=O)CC1NC(C)=O (stereo not drawn) [IIIa-2-10] | 44%
8 | CCCC(=O)NC1CC(=O)OC1C(OC(=O)CCC)C(=O)NC(CC(C)C)C1Cc2cccc(O)c2C(=O)O1 (stereo not drawn) [IIIa-2-11] | 33%
9 | CCC(=O)OC(C(=O)NC(CC(C)C)C1Cc2cccc(O)c2C(=O)O1)C1OC(=O)CC1NC(=O)C(Cl)(Cl)Cl (stereo not drawn) [IIIa-2-12] | 44%
10 | CC(=O)NC1CC(=O)OC1C(OC(C)=O)C(=O)NC(CC(C)C)C1Cc2cccc(OC(C)=O)c2C(=O)O1 (stereo not drawn) [IIIa-3-1] | 33%
11 | CCC(=O)OC(C(=O)NC(CC(C)C)C1Cc2cccc(OC(=O)C(C)C)c2C(=O)O1)C1OC(=O)CC1NC(C)=O (stereo not drawn) [IIIa-3-2] | 33%
12 | CC(=O)Oc1cccc2c1C(=O)OC(C(CC(C)C)NC(=O)C(OC(C)=O)C1OC(=O)CC1NC(=O)CC(C)C)C2 (stereo not drawn) [IIIa-3-3] | 33%
13 | CCCCCCCCCCCCCCCCCC(=O)NC1CC(=O)OC1C(OC(C)=O)C(=O)NC(CC(C)C)C1Cc2cccc(OC(C)=O)c2C(=O)O1 (stereo not drawn) [IIIa-3-4] | 22%
14 | CCCCCCCCC=CCCCCCCCC(=O)NC1CC(=O)OC1C(OC(C)=O)C(=O)NC(CC(C)C)C1Cc2cccc(OC(C)=O)c2C(=O)O1 (stereo not drawn) [IIIa-3-5] | 22%
15 | CC(=O)Oc1cccc2c1C(=O)OC(C(CC(C)C)NC(=O)C(OC(C)=O)C1OC(=O)CC1NC(=O)C1CCCO1)C2 (stereo not drawn) [IIIa-3-6] | 33%
16 | COC(C)CC(=O)NC1CC(=O)OC1C(OC(C)=O)C(=O)NC(CC(C)C)C1Cc2cccc(OC(C)=O)c2C(=O)O1 (stereo not drawn) [IIIa-3-7] | 33%
17 | CC(=O)Oc1cccc2c1C(=O)OC(C(CC(C)C)NC(=O)C(OC(C)=O)C1OC(=O)CC1NC(=O)c1ccc(C)cc1)C2 (stereo not drawn) [IIIa-3-8] | 33%
18 | CC(=O)Oc1cccc2c1C(=O)OC(C(CC(C)C)NC(=O)C(OC(C)=O)C1OC(=O)CC1NC(=O)c1ccc(OCCC(C)C)cc1)C2 (stereo not drawn) [IIIa-3-9] | 22%
19 | CC(=O)Oc1cccc2c1C(=O)OC(C(CC(C)C)NC(=O)C(OC(=O)C(Cl)(Cl)Cl)C1OC(=O)CC1NC(=O)C(Cl)(Cl)Cl)C2 (stereo not drawn) [IIIa-3-10] | 33%
20 | CC(=O)Oc1cccc2c1C(=O)OC(C(CC(C)C)NC(=O)C(O)C1OC(=O)CC1NC(=O)C(C)C)C2 (stereo not drawn) [IIIa-4-2] | 44%

Row | Structure (SMILES) | inhibition in vivo at 50 mg/kg
21 | CCCCCCCCCCCCCCCCCC(=O)NC1CC(=O)OC1C(O)C(=O)NC(CC(C)C)C1Cc2cccc(OC(C)=O)c2C(=O)O1 (stereo not drawn) [IIIa-4-3] | 33%
22 | CCCCCCCCC=CCCCCCCCC(=O)NC1CC(=O)OC1C(O)C(=O)NC(CC(C)C)C1Cc2cccc(OC(C)=O)c2C(=O)O1 (stereo not drawn) [IIIa-4-4] | 33%
23 | CC(=O)Oc1cccc2c1C(=O)OC(C(CC(C)C)NC(=O)C(O)C1OC(=O)CC1NC(=O)C1CCCO1)C2 (stereo not drawn) [IIIa-4-5] | 33%
24 | COC(C)CC(=O)NC1CC(=O)OC1C(O)C(=O)NC(CC(C)C)C1Cc2cccc(OC(C)=O)c2C(=O)O1 (stereo not drawn) [IIIa-4-6] | 44%
25 | CC(=O)Oc1cccc2c1C(=O)OC(C(CC(C)C)NC(=O)C(O)C1OC(=O)CC1NC(=O)c1ccc(C)cc1)C2 (stereo not drawn) [IIIa-4-7] | 33%
26 | CC(=O)Oc1cccc2c1C(=O)OC(C(CC(C)C)NC(=O)C(O)C1OC(=O)CC1NC(=O)c1ccc(OCCC(C)C)cc1)C2 (stereo not drawn) [IIIa-4-8] | 33%
27 | CC(C)CC(NC(=O)C(O)C1OC(=O)CC1NC(=O)C(Cl)(Cl)Cl)C1Cc2cccc(OC(=O)C(Cl)(Cl)Cl)c2C(=O)O1 (stereo not drawn) [IIIa-4-9] | 33%
28 | CCOc1cccc2c1C(=O)OC(C(CC(C)C)NC(=O)C(O)C1OC(=O)CC1NC(C)=O)C2 (stereo not drawn) [IIIa-5-1] | 44%
29 | CCOc1cccc2c1C(=O)OC(C(CC(C)C)NC(=O)C(O)C1OC(=O)CC1NC(=O)CC(C)C)C2 (stereo not drawn) [IIIa-5-2] | 44%
30 | CCCCOc1cccc2c1C(=O)OC(C(CC(C)C)NC(=O)C(O)C1OC(=O)CC1NC(C)=O)C2 (stereo not drawn) [IIIa-5-3] | 44%
31 | CC(C)COc1cccc2c1C(=O)OC(C(CC(C)C)NC(=O)C(O)C1OC(=O)CC1NC(=O)C(C)C)C2 (stereo not drawn) [IIIa-5-4] | 33%
32 | COc1cccc2c1C(=O)OC(C(CC(C)C)NC(=O)C(O)C1OC(=O)CC1NC(C)=O)C2 (stereo not drawn) [IIIa-5-5] | 44%
33 | CCCCCCCCCCCCCCCCCC(=O)NC1CC(=O)OC1C(O)C(=O)NC(CC(C)C)C1Cc2cccc(OCCCCCCC)c2C(=O)O1 (stereo not drawn) [IIIa-5-6] | 33%
34 | COc1cccc2c1C(=O)OC(C(CC(C)C)NC(=O)C(O)C1OC(=O)CC1NC(=O)C(Cl)(Cl)Cl)C2 (stereo not drawn) [IIIa-5-7] | 44%
35 | CCCCCCCCC=CCCCCCCCCOc1cccc2c1C(=O)OC(C(CC(C)C)NC(=O)C(O)C1OC(=O)CC1NC(C)=O)C2 (stereo not drawn) [IIIa-5-8] | 33%
36 | CCCCCCCCCCCCOc1cccc2c1C(=O)OC(C(CC(C)C)NC(=O)C(O)C1OC(=O)CC1NC(C)=O)C2 (stereo not drawn) [IIIa-5-9] | 33%
37 | CC(=O)NC1CC(=O)OC1C(O)C(=O)NC(CC(C)C)C1Cc2cccc(OCC(C)C)c2C(=O)O1 (stereo not drawn) [IIIa-5-10] | 44%
38 | CCCCCCCCOc1cccc2c1C(=O)OC(C(CC(C)C)NC(=O)C(O)C1OC(=O)CC1NC(C)=O)C2 (stereo not drawn) [IIIa-5-11] | 44%
39 | CCCCCCCCCCCCCCCCCCOc1cccc2c1C(=O)OC(C(CC(C)C)NC(=O)C(O)C1OC(=O)CC1NC(=O)CCCCCC)C2 (stereo not drawn) [IIIa-5-12] | 33%
40 | CCOc1cccc2c1C(=O)OC(C(CC(C)C)NC(=O)C(O)C1OC(=O)CC1NC(=O)C(Cl)(Cl)Cl)C2 (stereo not drawn) [IIIa-5-13] | 33%

Row | Structure (SMILES) | inhibition in vivo at 50 mg/kg
41 | CCOc1cccc2c1C(=O)OC(C(CC(C)C)NC(=O)C(O)C1OC(=O)CC1NC(=O)C13CC4CC(CC(C4)C1)C3)C2 (stereo not drawn) [IIIa-5-15] | 33%
42 | CCOc1cccc2c1C(=O)OC(C(CC(C)C)NC(=O)C(O)C1OC(=O)CC1NC(=O)c1ccccc1)C2 (stereo not drawn) [IIIa-5-16] | 33%
43 | CCOc1cccc2c1C(=O)OC(C(CC(C)C)NC(=O)C(O)C1OC(=O)CC1NC(=O)c1ccc3ccccc3c1)C2 (stereo not drawn) [IIIa-5-17] | 33%
44 | CCOc1cccc2c1C(=O)OC(C(CC(C)C)NC(=O)C(O)C1OC(=O)CC1NC(=O)C1CC1)C2 (stereo not drawn) [IIIa-5-18] | 44%
45 | CCOc1cccc2c1C(=O)OC(C(CC(C)C)NC(=O)C(O)C1OC(=O)CC1NC(=O)Cc1ccccc1)C2 (stereo not drawn) [IIIa-5-20] | 44%
46 | CCOc1cccc2c1C(=O)OC(C(CC(C)C)NC(=O)C(O)C1OC(=O)CC1NC(=O)Cc1ccc3ccccc3c1C)C2 (stereo not drawn) [IIIa-5-21] | 33%
47 | CCOc1cccc2c1C(=O)OC(C(CC(C)C)NC(=O)C(O)C1OC(=O)CC1NC(=O)c1ccco1)C2 (stereo not drawn) [IIIa-5-22] | 44%
48 | CCOc1cccc2c1C(=O)OC(C(CC(C)C)NC(=O)C(O)C1OC(=O)CC1NC(=O)C1CCCO1)C2 (stereo not drawn) [IIIa-5-23] | 44%
49 | CCOc1cccc2c1C(=O)OC(C(CC(C)C)NC(=O)C(O)C1OC(=O)CC1NC(=O)CC1CCCCO1)C2 (stereo not drawn) [IIIa-5-24] | 44%
50 | CCOc1cccc2c1C(=O)OC(C(CC(C)C)NC(=O)C(O)C1OC(=O)CC1NC(=O)c1cccs1)C2 (stereo not drawn) [IIIa-5-25] | 44%
51 | CCOc1cccc2c1C(=O)OC(C(CC(C)C)NC(=O)C(O)C1OC(=O)CC1NC(=O)c1nnnn1C)C2 (stereo not drawn) [IIIa-5-27] | 44%
52 | CCOc1cccc2c1C(=O)OC(C(CC(C)C)NC(=O)C(O)C1OC(=O)CC1NC(=O)c1cccn1C(C)=O)C2 (stereo not drawn) [IIIa-5-28] | 44%
53 | CCOc1cccc2c1C(=O)OC(C(CC(C)C)NC(=O)C(O)C1OC(=O)CC1NC(=O)c1cccn1C)C2 (stereo not drawn) [IIIa-5-29] | 33%
54 | CCOc1cccc2c1C(=O)OC(C(CC(C)C)NC(=O)C(O)C1OC(=O)CC1NC(=O)c1cnc3ccc(OC)cc3c1)C2 (stereo not drawn) [IIIa-5-30] | 33%
55 | CCOc1cccc2c1C(=O)OC(C(CC(C)C)NC(=O)C(O)C1OC(=O)CC1NC(=O)CCCBr)C2 (stereo not drawn) [IIIa-5-31] | 44%
56 | CCOc1cccc2c1C(=O)OC(C(CC(C)C)NC(=O)C(O)C1OC(=O)CC1NC(=O)C(=O)CC)C2 (stereo not drawn) [IIIa-5-32] | 44%
57 | CCOc1cccc2c1C(=O)OC(C(CC(C)C)NC(=O)C(O)C1OC(=O)CC1NC(=O)C1CCCCC1=O)C2 (stereo not drawn) [IIIa-5-33] | 44%
58 | CCOc1cccc2c1C(=O)OC(C(CC(C)C)NC(=O)C(O)C1OC(=O)CC1NC(=O)c1cn(C(C)=O)c3ccccc13)C2 (stereo not drawn) [IIIa-5-34] | 33%
59 | CCOc1cccc2c1C(=O)OC(C(CC(C)C)NC(=O)C(O)C1OC(=O)CC1NC(=O)c1ccc(OC(C)=O)cc1)C2 (stereo not drawn) [IIIa-5-35] | 44%
60 | CCOC(=O)CCC(=O)NC1CC(=O)OC1C(O)C(=O)NC(CC(C)C)C1Cc2cccc(OCC)c2C(=O)O1 (stereo not drawn) [IIIa-5-36] | 44%
